Measurements reported in patent publication US10894837B2, “MMP9 inhibitors and uses thereof in the prevention or treatment of a depigmenting disorder” (UNIVERSITE DE BORDEAUX, priority 2016, dated 2021).

Key:
Type in all cases: cell-based
MMP9 gene expression = assay: Real-time PCR analysis of MMP9 gene expression in reconstructed human pigmented epidermis treated with TNFα and IFNγ; settings: 24 h, 10 ng/ml TNFα and IFNγ, 1 μM and 10 μM inhibitor, real-time PCR (FIG. 13A)
Experimental: (§1) Reconstructed human pigmented epidermis were treated 24 h with or without 10 ng/ml of TNFα and IFNγ in the presence or absence of 1 μM and 10 μM of MMP9 inhibitors ab142180 or SB-CT. (A) Real-time PCR analysis of MMP9 gene expression. Results are expressed as a fold increase above control culture. GAPDH was used as a housekeeping gene. (B) Measurement of MMP9 levels by ELISA in cell-free supernatants.
(§2) As discussed above, TNFα and IFNγ induce MMP9 gene expression in melanocyte. Inventors used two commercially available synthetic MMP9 inhibitors, SB3CT (a […]) and a selective MMP9 inhibitor (ab142180), to assess whether such inhibition could inhibit TNFα and IFNγ effects on depigmentation. In vitro reconstructed human epidermis containing melanocytes were stimulated with these two cytokines in the presence or absence of the two different MMP9 inhibitors for 24 h (FIG. 5). The combination of TNFα and IFNγ induced melanocyte detachment and E-cadherin inhibition.
After 10 days of reconstruction (D10), reconstructed human pigmented epidermis (RHEm) are placed in 6 wells plate (NUNC reference 140675) in 2 ml of culture medium without hydrocortisone to which 10 ng/ml of interferon (IFN)-γ (R&D systems) and 10 ng/ml of “tumor necrosis factor (TNF)-α” (R&D systems) are added. A control condition without cytokines addition is performed. […]

[1] = system: Reconstructed human epidermis containing melanocytes; assay: TNFα and IFNγ-induced melanocyte detachment in reconstructed human epidermis, immunofluorescence of melan-A and E-cadherin; settings: 24 h, 20 ng/ml TNFα and IFNγ, 10 μM inhibitor (FIG. 5)
Experimental: Reconstructed human epidermis containing melanocytes were stimulated 24 h with or without 20 ng/ml of TNFα and IFNγ in the presence or absence of 10 μM of MMP9 inhibitor ab142180 or SB-CT. Immunofluorescence microscopy analysis of melan-A (red) and E-cadherin (green) expression, Magnification 400×. White arrows show melanocytes that are detached from the basal layer of the epidermis.
as §2
Pigmented epidermis (RHEm) are reconstructed from normal human keratinocytes (NHEK) and from normal human melanocytes (NHEM), previously isolated from preputial samples. […]
Then reading with a fluorescence microscope for the analysis of melanocytes detachment.

MMP9 = MMP9 levels by ELISA in cell-free supernatants of reconstructed human pigmented epidermis treated with TNFα and IFNγ; settings: 24 h, 10 ng/ml TNFα and IFNγ, 1 μM and 10 μM inhibitor, ELISA in cell-free supernatants (FIG. 13B)
Experimental: as §1, §2
After 10 days of reconstruction (D10), reconstructed human pigmented epidermis (RHEm) are placed in 6 wells plate (NUNC reference 140675) in 2 ml of culture medium without hydrocortisone to which 10 ng/ml of interferon (IFN)-γ (R&D systems) and 10 ng/ml of “tumor necrosis factor (TNF)-α” (R&D systems) are added. A control condition without cytokines addition is performed. Each experimental condition is performed in duplicate or triplicate.

## O=S(=O)(CC1CS1)c1ccc(Oc2ccccc2)cc1 (stereo not shown) [SB3CT, 2-[[(4-phenoxyphenyl)sulfonyl]methyl]-Thiirane]
MMP9 gene expression
  MMP9 expression induced by the combination of IFNγ and TNFα, gene level: reduced
[1]
  TNFα and IFNγ-induced melanocyte detachment and E-cadherin inhibition: strongly inhibited
MMP9
  MMP9 expression induced by the combination of IFNγ and TNFα, protein level (MMP9 production): reduced
MMP9; listed as SB-CT
  MMP9 expression induced by the combination of IFNγ and TNFα, protein level (MMP9 production): reduces

## CCN(CC)Cc1cc(C)c(N(Cc2ccccc2)S(=O)(=O)c2ccc(OC)cc2)c(C(=O)NO)c1 [ab142180, 2-(N-benzyl-4-methoxyphenylsulfonamido)-5-((diethylamino)methyl)-N-hydroxy-3-methylbenzamide]
MMP9 gene expression
  MMP9 expression induced by the combination of IFNγ and TNFα, gene level: reduced
[1]
  TNFα and IFNγ-induced melanocyte detachment and E-cadherin inhibition: strongly inhibited
MMP9
  MMP9 expression induced by the combination of IFNγ and TNFα, protein level (MMP9 production): reduced
